# Measurements reported in patent US20050038077A1, “Tablet containing 3-[(2-{[4-(hexyloxycarbonylamino-imino-methyl)-phenylamino]-methyl}-1-methyl-1H- benzimidazol-5-carbonyl)-pyridin-2-yl-amino]-propionic acid ethylester or the salts thereof” (Boehringer Ingelheim International GmbH, priority 2003, published 2005).
# Test: first clinical trials, oral administration, plasma levels
# Type: in vivo
# [1] = conventional tablets containing the compound of formula (I), first clinical trials
compound,measurement,setting,value
"CCCCCCOC(=O)NC(=N)c1ccc(NCc2nc3cc(C(=O)N(CCC(=O)OCC)c4ccccn4)ccc3n2C)cc1 [compound of formula (I), ethyl 3-[(2-{[4-(hexyloxycarbonylaminoiminomethyl)phenylamino]methyl}-1-methyl-1H-benzimidazole-5-carbonyl)pyridin-2-ylamino]propionate]",malabsorption,administered as an oral solution,no instances of malabsorption have been observed
same,variability of the plasma level patterns,"administered as an oral solution, compared with conventional tablets",significantly lower
same,malabsorption,[1],individual cases of malabsorption
same,variability of plasma levels,[1],highly variable plasma levels
